A short description of data set [1]: DPPH· radical scavenging (antioxidant) assay. As to conditions: 30 min; for Antioxidant % Inhibition (100 μM): DPPH· scavenging at 100 μM; for EC50: DPPH· scavenging. Here is the method:
The DPPH· scavenging was assayed according to the reported method. The DPPH radical scavenging test was performed in 96-well microplates. Testing materials (compounds 1–11) were added to 150 μL (0.16 mmol/L) DPPH solution in MeOH at a range of 50 μL solutions of different concentrations (2, 25, 50 and 100 μM). After 30 min, absorbance at 517 nm was measured and the percentage of activity was calculated. Ascorbic acid was used as a positive control.
On the technique in general: DPPH is a stable violet radical that fades when it is reduced.

Another data set has as its target α-glucosidase. In words: α-glucosidase inhibitory activity assay (p-nitrophenyl glycoside substrate, 96-well, 405 nm). In kind it is biochemical. To be noted: PBS pH 7.0, 37 °C. As for the experimental part: The α-glucosidase inhibitory activity was assayed according to the reported method. The inhibitory activity of α-glucosidase was tested in the 96-well plated with […] PBS (KH2PO4-K2HPO4, pH 7.0) buffer solution each. […] The assay was conducted in a 100 μL reaction system containing 20 μL enzyme stock solution, 69 μL PBS buffers and 1 μL of DMSO or testing materials. After 10 min incubation at 37 °C, 10 μL of the substrate was added and incubated for 20 min at 37 °C. The Absorbance which measured by a BIO-RAD (iMark) microplate reader at 405 nm was used to calculate the inhibitory activity according to the equation:η (%) = [(B − S)/B] × 100%(1) η (%) is the percentage of inhibition; B is the assay medium with DMSO; S is the assay medium with compound. The results of IC50 values were calculated by the nonlinear regression analysis.

The record followed here is article PMC6723402, “Secondary Metabolites with α-Glucosidase Inhibitory Activity from the Mangrove Fungus Mycosphaerella sp. SYSU-DZG01” (Marine Drugs, 2019).

For “1,3-dihydro-5-methoxy-7-methylisobenzofuran [Compound 6]”, in data set [1], the “Antioxidant % Inhibition (100 μM)” value came out at 65% and the midpoint of the response, the EC50, lay at 59.1 µM. Moreover, on α-glucosidase, the IC50 (usually the midpoint of a concentration-inhibition curve) is more than 50 µM.

Turning to `O=C1O[C@H]([C@@H](O)CO)C(O)=C1O` [Ascorbic acid, ascorbic acid, reference compound], in data set [1], the “Antioxidant % Inhibition (100 μM)” value worked out at 92% and the EC50 (commonly the concentration giving half of the maximal effect) worked out at 22.4 µM.

As to `CC1=CC2C=C(C)C(C)C3C(CC(C)C)NC(=O)C23C(=O)C2C3OC(c4c(C)c(O)c(O)c(O)c43)C2C(=O)CCC1` (stereo not drawn) [Compound 1, asperchalasine I], in data set [1], the “Antioxidant % Inhibition (100 μM)” value is 56% and the EC50 came to 77.8 µM. On α-glucosidase, this compound displayed an IC50 of 17.1 µM.

On to `CC1=C(C)C2(C)C(=O)C(O)(C1=O)C1(C)C(=O)C2(O)C(=O)C(C)=C1C` [Compound 2, dibefurin B], for which the “Antioxidant % Inhibition (100 μM)” value in data set [1] is given as less than 50%. On α-glucosidase, the IC50 was more than 50 µM.

On to `CC(O)C1OCc2c(O)cccc21` [Compound 3, (R)-9-((R)-10-hydroxyethyl)-7,9-dihydroisobenzofuran-1-ol], for which the melting point (in general, the temperature of the solid-liquid transition) is 89.8 to 91.9 °C. Further, the “Antioxidant % Inhibition (100 μM)” value in data set [1] is less than 50%. The IC50 at α-glucosidase is more than 50 µM.

As to `COC(=O)c1c(C)c(O)c(O)c(O)c1C=O` [Compound 4, 2-methoxycarbonyl-4,5,6-trihydroxy-3-methyl-benzaldehyde], the melting point was in the range of 95.9 to 97.8 °C. Besides, in data set [1], the “Antioxidant % Inhibition (100 μM)” value was determined as 57% and the EC50 turned out to be 85.8 µM. On α-glucosidase, this compound returned an IC50 of more than 50 µM.

Take `Cc1c(O)c(O)c(O)c2c1COC2=O` [Compound 5, epicoccone B]: in data set [1], the “Antioxidant % Inhibition (100 μM)” value was less than 50%. The compound further displayed an IC50 against α-glucosidase of more than 50 µM.

Turning to `Cc1c(O)cc(O)c(C(=O)OC[C@@H](O)[C@H](O)[C@H](O)CO)c1C` [Compound 7, paeciloside A], the “Antioxidant % Inhibition (100 μM)” value in data set [1] is given as less than 50%. Besides, the IC50 against α-glucosidase was more than 50 µM.

For the compound `Cc1c(O)c(O)c(O)c(C=O)c1-c1cc2c(C=O)c(C)c(O)c(O)c2o1` [Compound 8, epicoccolide B], in data set [1], the “Antioxidant % Inhibition (100 μM)” value stood at 89% and the concentration giving a half-maximal response (EC50) turned out to be 16.3 µM. The IC50 against α-glucosidase stood at 26.7 µM.
